# In patent publication US10543284B2, “Anti-c-Met antibody and anti-c-Met antibody-cytotoxic drug conjugate and pharmaceutical use thereof” (Suzhou Suncadia Biopharmaceuticals Co., Ltd., priority 2015, dated 2020):
# Read-outs that look alike come from different tables or passages of the source. *1 amine or outer side, *2 acyl side, *3 side chain or, on linkers, in order; H or OH if unused. Where a SMILES comes first, the peptide text is derived from it. [ ]: non-standard residue; d: D form. X1 = CO[C@H]([C@@H](C)C(=O)[*:2])[C@@H]1C[C@@H]2C[C@@H]2N1[*:1]; Dolaproine = CO[C@@H]([C@@H]1CCCN1)[C@@H](C)C(=O)O; Dil = CC[C@H](C)[C@H](NC)[C@@H](CC(=O)O)OC; Phe(2-F) = N[C@@H](Cc1ccccc1F)C(=O)O; NMeV = CN[C@H](C(=O)O)C(C)C
# B1: Ab-5: mouse hybridoma cell monoclonal antibody; heavy chain variable region SEQ ID NO: 4, light chain variable region SEQ ID NO: 5 (antibody, V domains shown)
# VH: QVQLKQSGPGLVQPSQSLSITCTVSGFSLPNYGVHWVRQSPGKGLEWLGVIWSGGSTNYAAAFVSRLRISKDNSKSQVFFEMNSLQADDTAVYYCARNHDNPYNYAMDYWGQGTTVTVSS
# VL: DIVLTQSPGSLAVYLGQRATISCRANKSVSTSTYNYLHWYQQKPGQPPKLLIYLASNLASGVPARFSGSGSGTDFTLNIHPLEEEDAATYYCQHSRDLPPTFGAGTKLELKR
# modifications: Murine
# Assays:
# MKN45 cell = test: ATP cytotoxicity test (CellTiter-Glo, 72 hours) in MKN45; assay type: cell-based, human
# Experimental: In order to assess the toxic effects of the ADC molecules of the present invention on cells, the ATP toxicity test was performed. ATP is an indicator of the metabolism of living cells, and the detection of ATP can reflect the effect of the toxicity of molecules on cells.
# HepG2 cells (Chinese Academy of Sciences cell bank, Cat # TCHu 72) were cultivated in EMEM complete medium containing 10% FBS, and MKN45 cells were cultivated in RPMI1640 complete medium containing 10% FBS. Trypsinization was performed for 2-3 min by adding 2-3 ml trypsin, 10-15 ml complete medium was added to elute the trypsinized cells when the trypsinization was complete, and the cells were centrifuged at 1000 rpm for 3 min. The supernatant was discarded, 10-20 ml complete medium was added to resuspend the cells to obtain a single cell suspension, and the cell density was adjusted to 4×10^4 cells/ml. 0.1 ml of the above cell suspension was added to each well of a 96-well cell culture plate and cultivated in an incubator at 37° C. in 5% CO2. […] The chemiluminescence was measured by a microplate reader (VICTOR 3, PerkinElmer), and the result was analyzed by GraphPad Prism (version 5.0) software.
# HepG2 cell = test: ATP cytotoxicity test (CellTiter-Glo, 72 hours) in HepG2; assay type: cell-based, human
# Experimental: HepG2 cells (Chinese Academy of Sciences cell bank, Cat # TCHu 72) were cultivated in EMEM complete medium containing 10% FBS, and MKN45 cells were cultivated in RPMI1640 complete medium containing 10% FBS. Trypsinization was performed for 2-3 min by adding 2-3 ml trypsin, 10-15 ml complete medium was added to elute the trypsinized cells when the trypsinization was complete, and the cells were centrifuged at 1000 rpm for 3 min. The supernatant was discarded, 10-20 ml complete medium was added to resuspend the cells to obtain a single cell suspension, and the cell density was adjusted to 4×10^4 cells/ml. 0.1 ml of the above cell suspension was added to each well of a 96-well cell culture plate and cultivated in an incubator at 37° C. in 5% CO2. […] Detection was performed according to the instructions of CellTiter-Glo® Luminescent Cell Viability Assay kit (Promega, Cat # G7571). The chemiluminescence was measured by a microplate reader (VICTOR 3, PerkinElmer), and the result was analyzed by GraphPad Prism (version 5.0) software.
# [1] = tested on: a variety of human tumor cell lines; conditions: cited from earlier work
# human c-Met-His = molecular target: T1, human c-Met-His (Homo sapiens, UniProt P08581); test: ELISA binding of c-Met antibody to c-Met antigen; conditions: hybridoma fusion clones, ELISA read at 450 nm
# T1 construct: His (C); made in house; host or cells: 293F cells
# T1 sequence (P08581 25-932 limits assumed): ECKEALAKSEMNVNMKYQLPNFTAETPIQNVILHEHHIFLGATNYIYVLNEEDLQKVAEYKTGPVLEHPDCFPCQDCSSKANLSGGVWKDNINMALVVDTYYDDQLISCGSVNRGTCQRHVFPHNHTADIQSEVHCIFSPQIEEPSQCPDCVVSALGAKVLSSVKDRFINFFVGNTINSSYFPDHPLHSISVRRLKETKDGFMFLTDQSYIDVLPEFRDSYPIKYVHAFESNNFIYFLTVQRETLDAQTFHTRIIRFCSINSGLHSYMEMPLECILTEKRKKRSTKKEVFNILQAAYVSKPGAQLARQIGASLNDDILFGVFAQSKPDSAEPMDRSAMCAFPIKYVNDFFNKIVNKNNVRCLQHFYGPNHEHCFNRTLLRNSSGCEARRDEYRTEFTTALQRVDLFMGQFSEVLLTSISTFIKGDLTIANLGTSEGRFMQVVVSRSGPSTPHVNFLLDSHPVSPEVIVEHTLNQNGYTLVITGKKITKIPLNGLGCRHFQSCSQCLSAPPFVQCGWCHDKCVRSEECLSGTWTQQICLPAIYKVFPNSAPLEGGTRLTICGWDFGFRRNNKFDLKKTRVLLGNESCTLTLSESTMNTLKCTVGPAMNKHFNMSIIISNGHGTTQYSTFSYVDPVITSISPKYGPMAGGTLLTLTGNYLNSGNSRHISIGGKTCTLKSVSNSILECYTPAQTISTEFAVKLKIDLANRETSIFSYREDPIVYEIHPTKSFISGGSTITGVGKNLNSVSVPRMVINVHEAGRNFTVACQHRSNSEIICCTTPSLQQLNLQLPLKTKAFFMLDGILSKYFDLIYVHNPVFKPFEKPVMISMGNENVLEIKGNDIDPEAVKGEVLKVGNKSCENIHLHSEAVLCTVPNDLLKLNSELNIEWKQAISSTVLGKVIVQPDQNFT
# Experimental: This experiment uses enzyme linked immunosorbent assay (ELISA) to detect affinity of c-Met antibody to c-Met antigen in vitro (including supernatant of hybridoma or recombinantly expressed monoclonal antibodies).
# Experimental procedures: Coating buffer (PBS; Hyclone, Cat No.: SH30256.01B) was used to dilute antigen (human c-Met-His, example 1) to 2 μg/ml, which was added to 96-well plate with 100 μl/well (Costar 9018, Cat No.: 03113024) and incubated overnight at 4′C. […] The plate was read with plate reader at 450 nm.
# After immunization, mice with a serum titer higher than 1:10^5 were selected for fusion. Mouse B-cells and myeloma cells (SP2/0, ATCC number: CRL-1581™) were prepared respectively in aseptic conditions and counted. […] The next day, positive clones were detected by ELISA (see Methods in Example 2).
# MKN45 cells = test: Inhibition of proliferation of MKN45 gastric cancer cells (CellTiter-Glo, 5 days); assay type: cell-based, human; conditions: monoclone culture supernatant, 5 days
# Excerpt: The clones above were selected and further cultured to obtain monoclones. After verification of binding activity by ELISA, monoclones were selected for cultivation, and the resulting supernatant was subjected to a cell viability assay. According to the experiment principle, anti-human c-Met antibodies of the invention are able to inhibit phosphorylation of c-Met expressed on the surface of human gastric cancer cell line MKN45, thereby inhibiting the proliferation of MNK45 cells.
# Human gastric cancer cells (MKN45, JCRB, JCRB0254, P11) were added to a 96-well cell culture plate (costar, #3799) at 1×10^5 cells/mL and 50 μl/well. The medium was RPMI1640 medium: (GIBCO, cat #11835)+10% FBS (GIBCO-10099141). Anti-human c-Met antibodies to be tested were added at 50 μl/well, and the plate was cultured for 5 days in incubator at 37′C (Manufacture: SANYO; Equipment No. TINC035). CellTiter-Glo® Luminescent Cell Viability Assay (Promega, G7573) was used, and the proliferation of cells was detected according to the instructions. The plate was read by a PerkinElmer plate reader, TREA001-RDA-IBA100. The following formula was used to calculate the percentage proliferation of cells: % proliferation of cells=(1−cell reads in experimental group/cell reads in untreated group)×100%.
molecule,measurement,setting,value
"CC[C@H](C)[C@@H]([C@@H](CC(=O)N1[C@H]2C[C@H]2C[C@H]1[C@H](OC)[C@@H](C)C(=O)N[C@@H](Cc1ccccc1F)C(=O)O)OC)N(C)C(=O)[C@@H](NC(=O)[C@@H](NC)C(C)C)C(C)C [12 g, (S)-2-((2R,3R)-3-((1S,3S,5S)-2-((3R,4S,5S)-4-((S)—N,3-dimethyl-2-((S)-3-methyl-2-(methylamino)butyramide)butyramide)-3-methoxy-5-methylheptanoyl)-2-azabicyclo[3.1.0]hexane-3-yl)-3-methoxy-2-methylpropanamido)-3-(2-fluorophenyl)propionic acid] (H-[NMeV]V[Dil][X1][Phe(2-F)]-OH)",IC50,"MKN45 cell; Homo sapiens, MKN-45",79.4 nM
same,IC50,"HepG2 cell; Homo sapiens, HepG2, ND: No activity was detected",401 nM
"CC[C@H](C)C([C@@H](CC(=O)N1CCC[C@H]1[C@H](OC)[C@@H](C)C(=O)N[C@H](C)[C@@H](O)c1ccccc1)OC)N(C)C(=O)[C@@H](NC(=O)[C@@H](NC)C(C)C)C(C)C (stereo partly shown) [MMAE, Monomethyl aurantatin E]",inhibitory activities against a variety of human tumor cell lines,[1],less than one nanomolar
"CC[C@H](C)[C@@H]([C@@H](CC(=O)N1CCC[C@H]1[C@H](OC)[C@@H](C)C(=O)N[C@@H](Cc1ccccc1)C(=O)O)OC)N(C)C(=O)[C@@H](NC(=O)[C@@H](NC)C(C)C)C(C)C [MMAF, reference compound] (H-[NMeV]V[Dil][Dolaproine]F-OH)",IC50,MKN45 cell,0.85 nM
same,IC50,HepG2 cell; ND: No activity was detected,4.88 nM
B1,Detection Results (OD450),human c-Met-His,1.64
same,MKN45 inhibition percentage (%),MKN45 cells,77.4%
